Test results as given in patent US12180215B2, “Substituted pyrrolo[3,4-d]imidazoles as JAK inhibitors” (HENAN MEDINNO PHARMACEUTICAL TECHNOLOGY CO., LTD., priority 2019, dated 2024).

What was measured:
JAK1 = JAK1 (Homo sapiens, UniProt P23458); assay: JAK1 kinase ADP-Glo assay (Example 59); type: biochemical; set-up: purchased Invitrogen PV4774; conditions: for IC50: JAK1 (Invitrogen) 4 nM, ATP 20 μM, IRS1 0.05 mg/mL, 25° C. 60 min, read-out: IC50 (nM), JAK1 Experiment
TYK2 = molecular target: T1, TYK2 (Homo sapiens, UniProt P29597); assay: TYK2 kinase ADP-Glo assay (Example 59); type: biochemical; conditions: for IC50: TYK2 (Invitrogen) 4 nM, ATP 10 μM, IRS1 0.03 mg/mL, 25° C. 60 min, read-out: IC50 (nM), TYK2 Experiment
T1 construct: purchased Invitrogen PV4790

JAK3 = JAK3 (Homo sapiens, UniProt P52333); assay: JAK3 kinase ADP-Glo assay (Example 59); type: biochemical; set-up: purchased Invitrogen PV3855; conditions: for IC50: JAK3 (Invitrogen) 0.5 nM, ATP 10 μM, Poly (4:1 Glu, Tyr) 0.03 mg/mL, 25° C. 60 min, read-out: IC50 (nM), JAK3 Experiment
JAK2 = JAK2 (Homo sapiens, UniProt O60674); assay: JAK2 kinase ADP-Glo assay (Example 59)
[1] = test system: itching caused by allergic dermatitis; conditions: cited from earlier work
[2] = in vivo; cited from earlier work
[3] = slope of the nonlinear IC50 fit

T1 sequence (P29597 833-1187 limits assumed): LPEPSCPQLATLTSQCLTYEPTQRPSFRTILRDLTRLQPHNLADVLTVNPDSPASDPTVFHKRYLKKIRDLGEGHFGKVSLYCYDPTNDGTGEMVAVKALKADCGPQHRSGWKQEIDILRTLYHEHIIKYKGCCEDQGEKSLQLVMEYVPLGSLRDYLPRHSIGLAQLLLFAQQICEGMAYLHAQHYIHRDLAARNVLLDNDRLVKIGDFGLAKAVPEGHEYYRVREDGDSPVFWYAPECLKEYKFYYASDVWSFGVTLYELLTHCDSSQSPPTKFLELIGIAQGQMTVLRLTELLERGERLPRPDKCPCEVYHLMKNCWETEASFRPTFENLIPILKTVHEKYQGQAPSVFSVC
Sequence of JAK1 (P23458 866-1154 limits assumed): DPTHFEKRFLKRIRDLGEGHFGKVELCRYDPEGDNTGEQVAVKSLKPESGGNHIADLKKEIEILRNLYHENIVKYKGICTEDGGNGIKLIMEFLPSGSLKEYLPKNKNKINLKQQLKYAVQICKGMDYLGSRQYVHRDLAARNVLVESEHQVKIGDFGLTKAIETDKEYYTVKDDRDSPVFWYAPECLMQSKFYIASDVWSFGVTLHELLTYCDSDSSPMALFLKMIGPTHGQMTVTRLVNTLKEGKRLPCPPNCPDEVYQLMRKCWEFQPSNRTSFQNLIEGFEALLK
Sequence of JAK3 (P52333 781-1124 limits assumed): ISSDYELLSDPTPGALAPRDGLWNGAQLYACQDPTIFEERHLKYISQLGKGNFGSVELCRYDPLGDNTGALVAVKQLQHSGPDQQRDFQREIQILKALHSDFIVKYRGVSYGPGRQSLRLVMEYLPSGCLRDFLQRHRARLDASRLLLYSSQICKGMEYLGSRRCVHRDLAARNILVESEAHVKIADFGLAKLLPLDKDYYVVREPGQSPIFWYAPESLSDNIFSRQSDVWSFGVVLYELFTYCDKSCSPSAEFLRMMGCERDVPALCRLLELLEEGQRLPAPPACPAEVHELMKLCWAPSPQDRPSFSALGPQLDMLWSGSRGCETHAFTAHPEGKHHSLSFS
Sequence of JAK2 (O60674 808-1132 limits assumed): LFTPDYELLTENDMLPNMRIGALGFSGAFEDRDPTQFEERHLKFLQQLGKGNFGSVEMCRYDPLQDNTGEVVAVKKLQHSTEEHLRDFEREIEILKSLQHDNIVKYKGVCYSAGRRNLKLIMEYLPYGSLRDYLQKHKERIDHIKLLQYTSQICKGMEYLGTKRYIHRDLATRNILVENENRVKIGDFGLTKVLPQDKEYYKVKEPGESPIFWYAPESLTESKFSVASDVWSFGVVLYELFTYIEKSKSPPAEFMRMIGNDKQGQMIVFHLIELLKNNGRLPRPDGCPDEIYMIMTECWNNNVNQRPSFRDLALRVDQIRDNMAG

| IC50 (JAK1) [nM] | IC50 (TYK2) [nM] | IC50 (JAK3) [nM] | IC50 (JAK2) [nM] | SMILES | other results |
| --- | --- | --- | --- | --- | --- |
| 0.152 | 0.2 | 0.238 | 0.176 | CCc1cc(O)c(F)cc1-c1ccc2c(-c3nc4c([nH]3)CN(C(=O)c3cnc(N5CCN(C)CC5)cn3)C4)n[nH]c2c1 [MDI-204, (2-(6-(2-ethyl-5-fluoro-4-hydroxyphenyl)-1H-indazol-3-yl)pyrrolo[3,4-d]imidazol-5(1H,4H,6H)-yl)(5-(4-methylpiperazin-1-yl)pyrazin-2-yl)ketone] |  |
| 0.121 | 0.194 | 0.178 | 0.158 | CCc1cc(O)ccc1-c1ccc2c(-c3nc4c([nH]3)CN(C(=O)c3cnc(N5CCN(C)CC5)cn3)C4)n[nH]c2c1 [MDI-205, (2-(6-(2-ethyl-4-hydroxyphenyl)-1H-indazol-3-yl)pyrrolo[3,4-d]imidazol-5(1H,4H,6H)-yl)(5-(4-methylpiperazin-1-yl)pyrazin-2-yl)ketone] |  |
| 0.943 | 7.23 | 0.628 | 0.556 | CCc1cc(O)c(F)cc1-c1ccc2c(-c3nc4c([nH]3)CN(S(=O)(=O)c3ccccc3)C4)n[nH]c2c1 [MDI-206, 5-ethyl-2-fluoro-4-(3-(5-(benzenesulfonyl)-1,4,5,6-tetrahydropyrrolo[3,4-d]imidazol-2-yl)-1H-indazol-6-yl)phenol] | Hillslope, JAK1 Experiment (JAK1; [3]): 1.091; Hillslope, TYK2 Experiment (TYK2; [3]): 0.744; Hillslope, JAK3 Experiment (JAK3; [3]): 1.216; Hillslope, JAK2 Experiment (JAK2; Example 59, slope of the nonlinear IC50 fit): 1.457 |
| 0.12 | 0.474 | 0.132 | 0.16 | CCc1cc(O)c(F)cc1-c1ccc2c(-c3nc4c([nH]3)CN(Cc3cnccn3)C4)n[nH]c2c1 [MDI-207, 5-ethyl-2-fluoro-4-(3-(5-(pyrazin-2ylmethyl)-1,4,5,6-tetrahydropyrrolo[3,4-d]imidazol-2-yl)-1H-indazol-6-yl)phenol] |  |
| 0.128 | 0.281 | 0.158 | 0.165 | CCc1cc(O)c(F)cc1-c1ccc2c(-c3nc4c([nH]3)CN(C(=O)C3CC3)C4)n[nH]c2c1 [MDI-209, cyclopropyl (2-(6-(2-ethyl-5-fluoro-4-hydroxyphenyl)-1H-indazol-3-yl)pyrrolo[3,4-d]imidazol-5(1H, 4H,6H)-yl)ketone] |  |
| 0.162 | 0.266 | 0.16 | 0.198 | CCc1cc(O)c(F)cc1-c1ccc2c(-c3nc4c([nH]3)CN(C(=O)C3CCC3)C4)n[nH]c2c1 [MDI-211, cyclobutyl (2-(6-(2-ethyl-5-fluoro-4-hydroxyphenyl)-1H-indazol-3-yl)pyrrolo[3,4-d]imidazol-5(1H, 4H,6H)-yl)ketone] |  |
| 0.146 | 0.146 | 0.116 | 0.166 | CCc1cc(O)c(F)cc1-c1ccc2c(-c3nc4c([nH]3)CN(C(=O)C3CC(O)C3)C4)n[nH]c2c1 (stereo not drawn) [MDI-213, (2-(6-(2-ethyl-5-fluoro-4-hydroxyphenyl)-1H-indazol-3-yl)pyrrolo[3,4-d]imidazol-5(1H,4H,6H)-yl)(3-hydroxylcyclobutyl)ketone] |  |
|  |  |  |  | CNS(=O)(=O)C[C@H]1CC[C@H](N(C)c2ncnc3[nH]ccc23)CC1 [Olatinib] | experimental animals (dogs) that alleviated the itching response by more than 50% ([1]; on the 7th day): more than 70%; time to relieve itching during the treatment ([1]; oral administration of 0.4-0.6 mg/kg twice a day): ≤ 24 h |
|  |  |  |  | N#CC[C@H](C1CCCC1)n1cc(-c2ncnc3[nH]ccc23)cn1 [Ruxolitinib] | incidence of the most common hematological adverse effects (low platelet counts and anemia) [2]: > 20%; incidence of the most common non-hematological adverse effects (ecchymosis, dizziness and headache) [2]: > 10% |
